Values belong to the compound of their own block, whether it stands above or below them.
Experiments:
[1] = biological target: T1, Sodium/glucose cotransporter 2 (Mus musculus) (UniProt Q923I7); experiment: In vivo inhibition of SGLT2-mediated increase in blood glucose level in mouse administered intraperitoneally; type: functional, organism-based; details: route ip
T1 sequence (whole entry): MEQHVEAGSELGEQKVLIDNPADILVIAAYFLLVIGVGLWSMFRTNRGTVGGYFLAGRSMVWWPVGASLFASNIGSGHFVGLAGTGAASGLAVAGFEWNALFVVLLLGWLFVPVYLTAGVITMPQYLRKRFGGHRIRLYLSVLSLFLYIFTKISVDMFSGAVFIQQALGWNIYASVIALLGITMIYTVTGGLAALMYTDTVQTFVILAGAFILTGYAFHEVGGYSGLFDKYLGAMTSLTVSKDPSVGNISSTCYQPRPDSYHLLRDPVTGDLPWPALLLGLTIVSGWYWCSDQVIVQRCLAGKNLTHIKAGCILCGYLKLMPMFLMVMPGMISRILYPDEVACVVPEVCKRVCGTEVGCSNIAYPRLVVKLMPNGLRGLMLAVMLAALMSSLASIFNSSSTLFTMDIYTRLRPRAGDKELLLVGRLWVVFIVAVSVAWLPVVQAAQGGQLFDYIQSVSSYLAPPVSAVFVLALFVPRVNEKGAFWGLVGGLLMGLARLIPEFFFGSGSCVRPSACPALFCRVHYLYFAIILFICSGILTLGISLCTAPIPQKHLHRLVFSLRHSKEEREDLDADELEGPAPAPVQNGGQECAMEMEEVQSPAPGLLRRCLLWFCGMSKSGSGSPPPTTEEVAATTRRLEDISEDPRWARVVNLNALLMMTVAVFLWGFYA

[2] = biological target: T2, Sodium/glucose cotransporter 1 (Homo sapiens, UniProt P13866); experiment: Inhibition of SGLT1 (unknown origin)
T2 sequence (P13866 whole entry): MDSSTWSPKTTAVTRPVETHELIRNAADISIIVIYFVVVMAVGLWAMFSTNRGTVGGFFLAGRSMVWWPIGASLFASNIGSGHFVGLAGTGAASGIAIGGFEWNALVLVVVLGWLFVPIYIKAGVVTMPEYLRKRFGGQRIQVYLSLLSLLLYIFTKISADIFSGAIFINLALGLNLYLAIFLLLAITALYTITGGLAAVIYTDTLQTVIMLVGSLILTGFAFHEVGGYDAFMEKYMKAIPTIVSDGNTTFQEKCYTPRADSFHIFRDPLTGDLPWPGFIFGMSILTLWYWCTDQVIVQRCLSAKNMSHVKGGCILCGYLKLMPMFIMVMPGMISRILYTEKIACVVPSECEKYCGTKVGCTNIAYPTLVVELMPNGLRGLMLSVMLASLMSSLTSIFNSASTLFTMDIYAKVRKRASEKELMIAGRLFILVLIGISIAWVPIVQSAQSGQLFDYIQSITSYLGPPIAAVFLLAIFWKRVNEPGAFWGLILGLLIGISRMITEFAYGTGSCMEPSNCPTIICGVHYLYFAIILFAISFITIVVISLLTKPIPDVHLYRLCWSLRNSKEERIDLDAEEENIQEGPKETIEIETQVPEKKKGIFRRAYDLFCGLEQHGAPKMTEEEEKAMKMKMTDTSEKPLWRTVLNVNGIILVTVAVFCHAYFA

[3] = biological target: T1, Sodium/glucose cotransporter 2 (Mus musculus); experiment: In vivo inhibition of SGLT2-mediated reduction in urinary glucose excretion in mouse administered orally; type: functional, organism-based; details: route po
[4] = biological target: T3, Sodium/glucose cotransporter 2 (Rattus norvegicus) (UniProt P53792); experiment: In vivo inhibition of SGLT2-mediated reduction in urinary glucose excretion in rat administered orally; type: functional, organism-based; details: route po
T3 sequence (whole entry): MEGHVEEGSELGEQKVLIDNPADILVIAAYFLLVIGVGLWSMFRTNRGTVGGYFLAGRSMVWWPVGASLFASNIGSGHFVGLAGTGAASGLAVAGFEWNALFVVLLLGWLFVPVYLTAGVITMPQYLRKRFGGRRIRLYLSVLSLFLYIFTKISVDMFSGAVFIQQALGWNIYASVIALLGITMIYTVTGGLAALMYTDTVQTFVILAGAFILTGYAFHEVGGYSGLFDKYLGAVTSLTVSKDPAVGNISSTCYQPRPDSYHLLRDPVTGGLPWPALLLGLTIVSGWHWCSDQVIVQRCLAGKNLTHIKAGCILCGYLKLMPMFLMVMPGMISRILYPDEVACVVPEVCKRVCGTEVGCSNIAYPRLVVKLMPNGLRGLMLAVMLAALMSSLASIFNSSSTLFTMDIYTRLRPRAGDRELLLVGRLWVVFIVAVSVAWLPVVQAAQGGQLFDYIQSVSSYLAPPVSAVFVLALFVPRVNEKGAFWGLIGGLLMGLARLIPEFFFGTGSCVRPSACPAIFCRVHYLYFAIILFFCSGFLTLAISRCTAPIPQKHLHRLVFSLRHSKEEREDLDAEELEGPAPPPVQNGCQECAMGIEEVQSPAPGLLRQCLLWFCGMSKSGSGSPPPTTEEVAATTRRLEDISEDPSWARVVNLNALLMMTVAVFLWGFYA

[5] = biological target: T1, Sodium/glucose cotransporter 2 (Mus musculus); experiment: In vivo inhibition of SGLT2-mediated increase in blood glucose level in mouse administered orally; type: functional, organism-based; details: route po
[6] = biological target: T2, Sodium/glucose cotransporter 1; experiment: Inhibition of human SGLT1 expressed in HEK293 cells using 14C-AMG as substrate preincubated for 15 mins followed by substrate addition measured after 2 hrs by liquid scintillation counter analysis; type: cell-based
[7] = biological target: T4, Sodium/glucose cotransporter 2 (Homo sapiens, UniProt P31639); experiment: Inhibition of human SGLT2 expressed in HEK293 cells using 14C-AMG as substrate preincubated for 15 mins followed by substrate addition measured after 2 hrs by liquid scintillation counter analysis; type: cell-based
T4 sequence (P31639 whole entry): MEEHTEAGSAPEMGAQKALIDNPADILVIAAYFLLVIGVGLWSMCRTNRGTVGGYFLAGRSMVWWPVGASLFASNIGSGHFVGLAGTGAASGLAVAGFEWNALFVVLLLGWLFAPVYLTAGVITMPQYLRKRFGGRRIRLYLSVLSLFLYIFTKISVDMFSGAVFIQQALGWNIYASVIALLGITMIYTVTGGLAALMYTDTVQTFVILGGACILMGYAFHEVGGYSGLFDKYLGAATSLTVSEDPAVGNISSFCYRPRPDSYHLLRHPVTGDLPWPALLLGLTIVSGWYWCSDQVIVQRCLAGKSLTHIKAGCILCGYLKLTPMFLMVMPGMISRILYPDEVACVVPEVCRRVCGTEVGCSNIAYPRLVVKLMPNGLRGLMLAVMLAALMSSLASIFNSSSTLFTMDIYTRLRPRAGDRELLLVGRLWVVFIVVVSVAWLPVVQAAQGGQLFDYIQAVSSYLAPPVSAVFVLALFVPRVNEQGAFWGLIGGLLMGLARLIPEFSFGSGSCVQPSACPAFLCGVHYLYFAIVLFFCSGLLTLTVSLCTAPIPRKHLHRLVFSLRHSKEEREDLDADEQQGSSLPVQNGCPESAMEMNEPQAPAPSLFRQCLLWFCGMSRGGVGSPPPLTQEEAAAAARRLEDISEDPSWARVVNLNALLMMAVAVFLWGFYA

[8] = biological target: T4, Sodium/glucose cotransporter 2; experiment: Inhibition of human SGLT2
[9] = biological target: T5, Sodium/glucose cotransporter 2 (Rattus norvegicus, UniProt P53792); experiment: Inhibition of rat SGLT2
T5 sequence (P53792 whole entry): T3 sequence (whole entry)

[10] = biological target: T6, Sodium/glucose cotransporter 2 (Mus musculus, UniProt Q923I7); experiment: Inhibition of mouse SGLT2
T6 sequence (Q923I7 whole entry): T1 sequence (whole entry)

ID50 [1]: 13.2 mg/kg
IC50 [2]: > 10000 nM
ID30 [3]: 79 mg/kg
ID30 [4]: 39.8 mg/kg
ID50 [5]: 26.1 mg/kg
Compound: COc1ccc(Cc2sccc2O[C@@H]2O[C@H](CO)[C@@H](O)[C@H](O)[C@H]2O)cc1 [ATIGLIFLOZIN]

IC50 [6]: 4320 nM
IC50 [7]: 2.38 nM
Compound: CCOc1ccc(Cc2cc([C@@]34OC[C@@](CO)(O3)[C@@H](O)[C@H](O)[C@H]4O)ccc2Cl)cc1F [HENAGLIFLOZIN]

Ki [8]: 1950 nM
Ki [9]: 2140 nM
Compound: CCOC(=O)OC[C@H]1O[C@@H](Oc2nn(C(C)C)c(C)c2Cc2ccc(OC(C)C)cc2)[C@H](O)[C@@H](O)[C@@H]1O [REMOGLIFLOZIN ETABONATE]

Ki [8]: 2.9 nM
Ki [10]: 6.4 nM
Ki [9]: 14.9 nM
Compound: CCc1ccc(Cc2ccc3c(c2)[C@]2(OC3)O[C@H](CO)[C@@H](O)[C@H](O)[C@H]2O)cc1 [TOFOGLIFLOZIN]
